Measured values as given in ChEMBL document CHEMBL1201862, “PubChem BioAssay data set” (2004).
Activity calls are given as the source filed them.

Tests used:
[1] = target: T1, Short transient receptor potential channel 4 (Mus musculus, UniProt Q9QUQ5); assay: potentiation of DAMGO-evoked TRPC4 calcium signal – cell-based, HEK293 TRPC4/mu-opioid, Fluo-4 calcium, EC20 DAMGO, dose response (AID 434941); format: functional
T1 sequence (Q9QUQ5 whole entry): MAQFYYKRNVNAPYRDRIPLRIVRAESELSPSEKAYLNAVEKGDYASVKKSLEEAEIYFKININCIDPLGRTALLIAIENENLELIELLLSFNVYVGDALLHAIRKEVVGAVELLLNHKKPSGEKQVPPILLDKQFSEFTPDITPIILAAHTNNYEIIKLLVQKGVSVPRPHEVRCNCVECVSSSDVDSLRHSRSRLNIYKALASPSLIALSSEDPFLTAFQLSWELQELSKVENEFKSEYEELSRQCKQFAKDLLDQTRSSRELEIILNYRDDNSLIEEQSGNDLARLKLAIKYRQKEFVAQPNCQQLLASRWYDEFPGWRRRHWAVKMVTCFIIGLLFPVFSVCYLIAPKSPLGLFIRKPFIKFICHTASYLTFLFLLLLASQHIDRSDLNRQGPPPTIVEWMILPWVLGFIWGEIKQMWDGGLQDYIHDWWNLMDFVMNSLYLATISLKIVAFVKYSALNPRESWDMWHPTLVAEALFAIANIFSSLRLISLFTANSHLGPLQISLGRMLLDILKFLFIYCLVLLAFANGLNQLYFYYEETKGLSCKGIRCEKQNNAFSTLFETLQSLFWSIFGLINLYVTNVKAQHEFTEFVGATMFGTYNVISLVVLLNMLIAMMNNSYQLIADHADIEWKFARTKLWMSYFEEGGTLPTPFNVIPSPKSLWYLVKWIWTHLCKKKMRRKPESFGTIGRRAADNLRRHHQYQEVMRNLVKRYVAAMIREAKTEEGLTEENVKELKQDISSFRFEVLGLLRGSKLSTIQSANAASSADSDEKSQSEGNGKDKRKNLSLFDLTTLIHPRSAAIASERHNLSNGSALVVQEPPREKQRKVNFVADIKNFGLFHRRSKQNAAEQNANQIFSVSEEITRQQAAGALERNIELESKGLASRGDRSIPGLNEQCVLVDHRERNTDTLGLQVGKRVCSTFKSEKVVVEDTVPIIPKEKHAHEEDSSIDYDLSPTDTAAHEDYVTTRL

Saccharomyces cerevisiae = assay: S. cerevisiae Caspase-1/ASC signal blockers IC50, NALP1 inhibitor project selectivity test (AID 488863); format: functional, organism-based
[2] = target: NACHT, LRR and PYD domains-containing protein 1 (Homo sapiens, UniProt Q9C000); assay: NALP1 inhibitors in yeast, dose response, luminescent (AID 488860); format: functional
Mu-type opioid receptor = Mu-type opioid receptor (Homo sapiens, UniProt P35372); format: functional, cell-based;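 further: U2OS cells with beta-arrestin recruitment to OPRM1 by beta-gal complementation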
[3] = target: 5-hydroxytryptamine receptor 2A (Mus musculus, UniProt P35363); format: functional, cell-based;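 further: CHO-K1 cells with tagged receptor and beta-arrestin; agonist potency measured as compound-induced activation of the receptor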
[4] = viability of uninfected HEp-2 cells – cell-based, HTS, cytotoxicity control for RSV inhibitor project, dose response (AID 2410); format: functional; details: human respiratory syncytial virus
SUMO-activating enzyme [5] = target: T2, SUMO-activating enzyme (Homo sapiens, UniProt Q9UBT2); assay: blockers of UBC9-mediated SUMO conjugation – biochemical, AlphaScreen, SUMOylation inhibitor project, confirmation (AID 2018); format: functional
SUMO-activating enzyme [6] = target: T2, SUMO-activating enzyme; assay: blockers of SAE1/SAE2–UBC9 SUMO transfer – biochemical, HTRF, uHTS, primary screen (AID 2006); format: protein-complex assay
[7] = target: T3, Mannose-6-phosphate isomerase (Homo sapiens, UniProt P34949); assay: phosphomannose isomerase inhibition – biochemical, fluorescence intensity, confirmation (AID 1535)
T3 sequence (P34949 whole entry): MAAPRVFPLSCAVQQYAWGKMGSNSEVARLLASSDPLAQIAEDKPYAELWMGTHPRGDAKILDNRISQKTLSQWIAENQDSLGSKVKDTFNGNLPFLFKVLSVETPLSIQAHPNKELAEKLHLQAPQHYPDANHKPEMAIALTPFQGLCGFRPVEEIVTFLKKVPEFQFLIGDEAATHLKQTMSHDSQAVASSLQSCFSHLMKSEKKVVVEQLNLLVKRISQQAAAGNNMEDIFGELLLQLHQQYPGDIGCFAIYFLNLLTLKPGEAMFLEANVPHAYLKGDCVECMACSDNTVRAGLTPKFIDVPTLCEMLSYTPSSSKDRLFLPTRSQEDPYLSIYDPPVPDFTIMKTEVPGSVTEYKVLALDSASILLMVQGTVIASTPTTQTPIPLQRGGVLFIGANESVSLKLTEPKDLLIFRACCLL

Phosphomannomutase 2 = Phosphomannomutase 2 (Homo sapiens, UniProt O15305); assay: Counter screen SAR assay for PMM2 inhibitors via a fluorescence intensity assay. [Related pubchem assays (depositor defined):AID1545, AID1574]
HEK293 = assay: EBV LMP1 TES2 canonical NF-kB signalling blockers – cell-based, HEK293, luciferase, cherry-pick, dose response (AID 588343); format: functional; details: Homo sapiens
[8] = target: T4, Rac GTPase-activating protein 1 (Homo sapiens, UniProt Q9H0H5); assay: blockers of MgcRacGAP-driven Rac1 GTP hydrolysis – biochemical, ADP Hunter fluorescence, primary and confirmatory, confirmation (AID 624330); format: functional
T4 sequence (Q9H0H5 whole entry): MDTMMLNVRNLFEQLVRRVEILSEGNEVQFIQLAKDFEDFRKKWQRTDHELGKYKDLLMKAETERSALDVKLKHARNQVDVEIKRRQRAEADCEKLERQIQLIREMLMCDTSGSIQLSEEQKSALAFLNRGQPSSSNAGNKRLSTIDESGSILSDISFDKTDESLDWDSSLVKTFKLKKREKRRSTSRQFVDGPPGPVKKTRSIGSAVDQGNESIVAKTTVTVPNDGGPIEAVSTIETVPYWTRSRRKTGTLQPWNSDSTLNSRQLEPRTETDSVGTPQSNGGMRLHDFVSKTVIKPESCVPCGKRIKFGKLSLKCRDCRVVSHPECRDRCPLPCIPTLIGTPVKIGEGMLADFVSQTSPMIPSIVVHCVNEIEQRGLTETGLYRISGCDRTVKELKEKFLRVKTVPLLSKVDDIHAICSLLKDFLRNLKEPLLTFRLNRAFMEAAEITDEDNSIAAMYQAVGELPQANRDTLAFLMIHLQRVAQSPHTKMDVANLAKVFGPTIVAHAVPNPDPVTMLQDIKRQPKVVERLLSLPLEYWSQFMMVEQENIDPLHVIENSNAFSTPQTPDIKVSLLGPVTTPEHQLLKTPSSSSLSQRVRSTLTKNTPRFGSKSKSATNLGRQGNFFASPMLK

[9] = viability loss in HeLa cells – cytotoxicity control for MgcRacGAP inhibitor project, dose response (AID 624300); format: functional
[10] = Luminescence Cell-Based Dose Response HTS to Identify Inhibitors of 5'UTR Stem-Loop Driven Prion Protein mRNA Translation in H4 Neuroglioblastoma Cells. [Related pubchem assays: 1827 (Project Summary), 1813 (Primary HTS)]; format: functional
Bcl-2-related protein A1 = target: T5, Bcl-2-related protein A1 (Mus musculus, UniProt Q07440); format: functional;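 further: confirmatory dose–response counterscreen on Bfl-1, used to check hits from a UBC13 polyubiquitin inhibitor campaign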
T5 sequence (Q07440 whole entry): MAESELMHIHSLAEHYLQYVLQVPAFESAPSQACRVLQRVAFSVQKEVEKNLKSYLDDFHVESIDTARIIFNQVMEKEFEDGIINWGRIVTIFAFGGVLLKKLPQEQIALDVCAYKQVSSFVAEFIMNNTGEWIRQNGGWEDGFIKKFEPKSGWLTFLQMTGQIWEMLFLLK

[11] = A549 cell cytotoxicity, dose response, cytotoxicity control, plate reader, cherry-pick, antagonist series (AID 743412); format: functional, cell-based
[12] = alpha-synuclein stem-loop luciferase translation blockers – H4 neuroglioma cells, luminescence, confirmation (AID 1988); format: functional, cell-based
[13] = blockade of melanocortin 4 receptor signaling – cell-based, plate reader, cherry pick, counter-screen for LGR2 antagonist project, dose response (AID 743444); format: functional;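 further: transfected HEK 293 cells stimulated with alpha-MSH peptide; potency of inhibitors of the alpha-MSH evoked signal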
INS1 = assay: INS-1E survival protection against cytokine death – cell-based, luminescence, retest, dose response (AID 449756); format: functional; details: Rattus norvegicus;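 further: cell death triggered by IL-1 beta plus TNF-alpha plus IFN-gamma mixture; protective hits raise ATP signal compared with cytokine alone wells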
[14] = microbe, parasite or virus in culture; format: functional; details: Mycobacterium tuberculosis
[15] = target: T6, Ubiquitin-conjugating enzyme E2 N (Homo sapiens, UniProt P61088); format: functional
T6 sequence (P61088 whole entry): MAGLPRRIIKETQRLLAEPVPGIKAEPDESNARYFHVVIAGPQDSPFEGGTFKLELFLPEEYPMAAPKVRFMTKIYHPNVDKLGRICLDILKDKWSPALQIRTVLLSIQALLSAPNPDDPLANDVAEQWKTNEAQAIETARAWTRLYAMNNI

[16] = target: T7, Small ubiquitin-related modifier 1 (Homo sapiens, UniProt P63165); assay: SUMO1 protein-protein binding blockers, potency – biochemical, FRET, dose response (AID 624383); format: functional; details: read-out: IC50_Mean
[17] = Trypanosoma cruzi growth suppression in host cells – NIH3T3 host cells, beta-gal luminescence, confirmation (AID 2044); format: functional, cell-based;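 further: intracellular parasites grown in NIH/3T3 mouse fibroblasts as host cells; luminescent beta-galactosidase reporter signal from transgenic T. cruzi replicating inside host cells; inhibitors lower the luminescence signal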
[18] = blockers of bursicon-stimulated LGR2 cAMP reporter – cell-based, HEK293, CRE-luciferase reporter, cherry pick, set 2, dose response (AID 743343); format: functional;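 further: transfected cells were stimulated with diluted bursicon conditioned medium after compound addition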
[19] = viability loss in HEK293 cells – cell-based, plate reader, cherry-picked samples, cytotoxicity control, dose response (AID 743446); format: functional
[20] = target: T6, Ubiquitin-conjugating enzyme E2 N; format: functional; remark: listed apart in the source
[21] = HEK-293T viability loss after treatment – luminescence, T-cell screen hits, cytotoxicity control for TCR NF-kB inhibitor project, dose response (AID 489026); format: functional, cell-based;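 further: cells exposed to compound about 14 hours before the viability readout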
[22] = toxicity toward HepG2 liver cells – cell-based, plate reader, cherry-pick, antagonist series, cytotoxicity control, dose response (AID 743416); format: functional
[23] = target: Cystic fibrosis transmembrane conductance regulator/Golgi-associated PDZ and coiled-coil motif-containing protein (Homo sapiens, UniProt P13569+Q9HD26); assay: potency against CAL PDZ-peptide interaction – biochemical, fluorescence polarization, Cerulean-tagged CAL PDZ, cherry-picks, dose response (AID 504773)
[24] = luciferase reporter signal suppression in cells – H4 neuroglioma cells, luminescence, dose response (AID 1990); format: functional, cell-based
[25] = target: T7, Small ubiquitin-related modifier 1; assay: SUMO1 protein interaction blockers, potency – biochemical, fluorescence polarization, uHTS hits, dose response (AID 624382); format: functional; details: read-out: IC50_Mean
[26] = target: T8, Type-1 angiotensin II receptor (Homo sapiens, UniProt P30556); assay: agonist activity at AGTR1 – cell-based, uHTS hits, selectivity assay for APJ receptor agonist project, dose response (AID 488865); format: functional;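 further: beta-arrestin recruitment to AT1 measured by enzyme fragment complementation luminescence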
T8 sequence (P30556 whole entry): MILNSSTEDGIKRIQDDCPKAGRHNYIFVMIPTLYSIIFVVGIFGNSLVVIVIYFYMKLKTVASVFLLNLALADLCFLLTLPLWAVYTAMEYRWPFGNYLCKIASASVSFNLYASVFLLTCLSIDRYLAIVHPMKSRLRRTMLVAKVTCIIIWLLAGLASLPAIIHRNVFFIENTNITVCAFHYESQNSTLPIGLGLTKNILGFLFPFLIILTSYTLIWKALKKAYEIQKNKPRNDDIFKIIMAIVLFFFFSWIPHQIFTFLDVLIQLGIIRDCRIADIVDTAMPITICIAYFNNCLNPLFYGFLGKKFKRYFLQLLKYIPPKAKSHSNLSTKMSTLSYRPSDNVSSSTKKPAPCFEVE

[27] = NIH3T3 cell viability loss – ATP luminescence, mouse fibroblasts, counter-screen, dose response (AID 2010); format: functional, cell-based;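 further: cells exposed to compound for about 90 hours before reading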

T2 sequence (Q9UBE0 whole entry): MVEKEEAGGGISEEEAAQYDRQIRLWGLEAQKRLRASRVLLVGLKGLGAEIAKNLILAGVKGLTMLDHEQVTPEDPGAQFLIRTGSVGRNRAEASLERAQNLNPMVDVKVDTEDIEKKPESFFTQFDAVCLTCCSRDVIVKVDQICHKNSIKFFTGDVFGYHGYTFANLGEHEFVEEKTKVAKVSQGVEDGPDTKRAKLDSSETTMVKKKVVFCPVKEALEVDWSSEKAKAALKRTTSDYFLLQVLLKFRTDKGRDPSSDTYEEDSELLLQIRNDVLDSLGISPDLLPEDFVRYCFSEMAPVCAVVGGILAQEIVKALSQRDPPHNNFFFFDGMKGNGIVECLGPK
T2 sequence (Q9UBT2 whole entry): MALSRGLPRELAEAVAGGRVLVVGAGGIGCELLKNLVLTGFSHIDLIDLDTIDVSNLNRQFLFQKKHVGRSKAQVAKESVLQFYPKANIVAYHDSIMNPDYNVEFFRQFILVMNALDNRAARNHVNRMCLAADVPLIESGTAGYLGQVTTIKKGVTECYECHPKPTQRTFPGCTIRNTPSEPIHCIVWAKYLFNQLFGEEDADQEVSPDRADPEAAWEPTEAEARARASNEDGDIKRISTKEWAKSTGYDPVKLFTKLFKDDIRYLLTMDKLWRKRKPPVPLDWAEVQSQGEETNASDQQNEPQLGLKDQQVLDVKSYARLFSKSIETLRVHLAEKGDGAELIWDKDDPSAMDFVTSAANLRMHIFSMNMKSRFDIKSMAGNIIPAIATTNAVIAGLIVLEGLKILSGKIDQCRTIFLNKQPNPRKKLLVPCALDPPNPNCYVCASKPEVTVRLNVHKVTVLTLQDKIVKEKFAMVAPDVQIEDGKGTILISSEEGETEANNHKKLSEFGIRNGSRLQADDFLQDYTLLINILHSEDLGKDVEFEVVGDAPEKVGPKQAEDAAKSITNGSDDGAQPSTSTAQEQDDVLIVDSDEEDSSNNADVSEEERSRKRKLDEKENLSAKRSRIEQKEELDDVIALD
T7 sequence (P63165 whole entry): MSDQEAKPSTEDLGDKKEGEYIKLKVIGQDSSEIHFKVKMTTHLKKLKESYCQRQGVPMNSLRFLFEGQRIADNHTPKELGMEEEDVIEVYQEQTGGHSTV
Sequence of NACHT, LRR and PYD domains-containing protein 1 (Q9C000 1-1212 limits assumed): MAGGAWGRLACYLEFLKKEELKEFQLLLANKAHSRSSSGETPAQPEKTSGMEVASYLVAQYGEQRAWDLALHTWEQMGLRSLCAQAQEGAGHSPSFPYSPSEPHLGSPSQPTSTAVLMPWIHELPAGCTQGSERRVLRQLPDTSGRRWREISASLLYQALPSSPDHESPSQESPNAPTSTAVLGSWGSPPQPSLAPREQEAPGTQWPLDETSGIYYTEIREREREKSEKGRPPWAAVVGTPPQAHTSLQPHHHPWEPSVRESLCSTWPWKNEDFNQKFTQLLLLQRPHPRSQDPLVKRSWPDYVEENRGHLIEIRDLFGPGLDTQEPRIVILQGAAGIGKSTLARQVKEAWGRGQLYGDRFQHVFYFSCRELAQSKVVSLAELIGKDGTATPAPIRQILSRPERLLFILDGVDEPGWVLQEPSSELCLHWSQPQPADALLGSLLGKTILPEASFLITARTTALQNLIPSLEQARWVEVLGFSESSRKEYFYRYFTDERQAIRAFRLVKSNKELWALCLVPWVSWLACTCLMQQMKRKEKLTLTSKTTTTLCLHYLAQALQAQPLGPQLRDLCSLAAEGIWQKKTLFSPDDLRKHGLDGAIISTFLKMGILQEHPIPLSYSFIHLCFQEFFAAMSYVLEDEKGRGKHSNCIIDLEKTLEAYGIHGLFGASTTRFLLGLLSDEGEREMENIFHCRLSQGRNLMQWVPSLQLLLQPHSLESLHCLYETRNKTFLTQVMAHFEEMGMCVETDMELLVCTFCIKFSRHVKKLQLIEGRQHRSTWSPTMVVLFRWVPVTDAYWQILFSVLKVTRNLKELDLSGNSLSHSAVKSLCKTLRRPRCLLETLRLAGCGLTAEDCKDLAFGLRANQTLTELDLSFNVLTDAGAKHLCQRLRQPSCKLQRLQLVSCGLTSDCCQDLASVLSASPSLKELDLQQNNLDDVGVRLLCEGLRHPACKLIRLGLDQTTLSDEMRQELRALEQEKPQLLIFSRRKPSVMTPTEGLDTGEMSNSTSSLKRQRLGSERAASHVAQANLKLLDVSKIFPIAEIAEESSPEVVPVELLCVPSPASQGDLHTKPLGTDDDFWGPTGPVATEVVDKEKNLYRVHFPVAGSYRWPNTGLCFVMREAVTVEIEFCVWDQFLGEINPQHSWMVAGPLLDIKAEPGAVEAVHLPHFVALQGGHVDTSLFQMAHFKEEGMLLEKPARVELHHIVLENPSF
Sequence of NACHT, LRR and PYD domains-containing protein 1 (Q9C000 1213-1473 limits assumed): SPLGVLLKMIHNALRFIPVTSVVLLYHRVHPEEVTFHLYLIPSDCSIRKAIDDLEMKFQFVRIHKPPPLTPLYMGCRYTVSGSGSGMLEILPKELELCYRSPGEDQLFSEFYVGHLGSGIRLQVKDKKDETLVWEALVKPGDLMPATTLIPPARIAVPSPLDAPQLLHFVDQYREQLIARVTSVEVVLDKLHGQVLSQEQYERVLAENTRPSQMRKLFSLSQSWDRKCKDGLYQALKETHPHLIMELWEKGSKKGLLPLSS
Sequence of 5-hydroxytryptamine receptor 2A (P35363 whole entry): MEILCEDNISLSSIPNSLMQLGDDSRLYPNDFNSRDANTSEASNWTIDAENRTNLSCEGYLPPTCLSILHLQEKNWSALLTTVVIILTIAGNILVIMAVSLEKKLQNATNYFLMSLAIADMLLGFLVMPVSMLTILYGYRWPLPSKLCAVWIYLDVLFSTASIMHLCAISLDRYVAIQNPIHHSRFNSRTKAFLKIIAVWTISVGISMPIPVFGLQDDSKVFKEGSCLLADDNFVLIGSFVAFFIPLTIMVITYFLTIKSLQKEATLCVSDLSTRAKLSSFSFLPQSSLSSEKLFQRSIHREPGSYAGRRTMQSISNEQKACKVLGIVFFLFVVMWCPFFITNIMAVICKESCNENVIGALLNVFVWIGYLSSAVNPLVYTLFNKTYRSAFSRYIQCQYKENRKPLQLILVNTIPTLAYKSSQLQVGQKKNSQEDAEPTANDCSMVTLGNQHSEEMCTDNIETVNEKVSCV
Sequence of Phosphomannomutase 2 (O15305 whole entry): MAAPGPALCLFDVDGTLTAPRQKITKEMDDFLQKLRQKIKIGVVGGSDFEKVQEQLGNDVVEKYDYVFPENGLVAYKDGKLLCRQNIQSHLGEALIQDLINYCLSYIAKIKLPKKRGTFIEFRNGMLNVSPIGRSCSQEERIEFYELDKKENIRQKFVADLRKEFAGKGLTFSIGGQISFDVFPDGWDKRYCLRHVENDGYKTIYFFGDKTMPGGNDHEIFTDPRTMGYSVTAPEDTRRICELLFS
Sequence of Cystic fibrosis transmembrane conductance regulator/Golgi-associated PDZ and coiled-coil motif-containing protein (P13569 whole entry, other chains not shown): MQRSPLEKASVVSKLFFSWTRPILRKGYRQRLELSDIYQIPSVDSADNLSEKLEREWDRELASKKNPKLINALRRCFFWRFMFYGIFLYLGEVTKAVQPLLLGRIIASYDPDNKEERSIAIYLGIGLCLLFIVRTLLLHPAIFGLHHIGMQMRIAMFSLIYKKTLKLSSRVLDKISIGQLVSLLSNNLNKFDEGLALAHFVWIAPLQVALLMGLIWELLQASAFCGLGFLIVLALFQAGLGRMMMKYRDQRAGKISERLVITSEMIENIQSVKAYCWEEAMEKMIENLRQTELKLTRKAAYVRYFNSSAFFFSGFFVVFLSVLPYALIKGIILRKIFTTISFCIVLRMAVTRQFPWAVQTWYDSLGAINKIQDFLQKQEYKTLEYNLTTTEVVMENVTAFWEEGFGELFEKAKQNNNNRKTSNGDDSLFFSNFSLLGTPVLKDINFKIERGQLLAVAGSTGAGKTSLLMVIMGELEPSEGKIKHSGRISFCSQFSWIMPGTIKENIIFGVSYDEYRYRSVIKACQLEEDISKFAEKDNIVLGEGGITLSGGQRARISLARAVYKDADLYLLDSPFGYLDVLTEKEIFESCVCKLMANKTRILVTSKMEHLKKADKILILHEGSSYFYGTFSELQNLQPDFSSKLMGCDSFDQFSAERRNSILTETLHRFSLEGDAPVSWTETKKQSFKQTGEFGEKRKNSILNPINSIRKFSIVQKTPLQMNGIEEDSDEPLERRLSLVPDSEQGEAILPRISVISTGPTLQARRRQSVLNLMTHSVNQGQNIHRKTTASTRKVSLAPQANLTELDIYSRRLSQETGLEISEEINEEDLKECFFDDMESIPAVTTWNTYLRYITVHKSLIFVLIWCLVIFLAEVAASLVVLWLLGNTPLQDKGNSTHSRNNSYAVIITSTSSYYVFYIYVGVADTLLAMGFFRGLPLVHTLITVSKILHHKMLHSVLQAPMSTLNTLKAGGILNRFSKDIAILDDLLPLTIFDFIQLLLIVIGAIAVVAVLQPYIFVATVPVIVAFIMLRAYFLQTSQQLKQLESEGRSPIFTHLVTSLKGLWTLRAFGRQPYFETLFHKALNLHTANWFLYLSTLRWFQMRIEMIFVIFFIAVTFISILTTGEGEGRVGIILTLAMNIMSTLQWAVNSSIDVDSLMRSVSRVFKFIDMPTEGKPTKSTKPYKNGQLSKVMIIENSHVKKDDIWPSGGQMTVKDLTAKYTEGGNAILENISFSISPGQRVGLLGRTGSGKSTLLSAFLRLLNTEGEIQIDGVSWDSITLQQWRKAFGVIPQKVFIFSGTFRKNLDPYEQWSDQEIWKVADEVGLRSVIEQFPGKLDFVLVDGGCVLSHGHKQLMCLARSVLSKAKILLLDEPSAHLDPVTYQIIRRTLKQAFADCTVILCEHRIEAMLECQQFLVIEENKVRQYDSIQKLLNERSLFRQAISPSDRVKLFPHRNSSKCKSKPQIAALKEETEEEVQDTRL

## c1ccc(-c2nc(N3CCNCC3)nc3ccccc23)cc1
[1]
  EC50: 0.3 µM (active)

## COc1ccc(C)cc1NC(=O)c1ccc(CN2CCN(c3ccccc3)CC2)cc1
Saccharomyces cerevisiae
  IC50: > 100 µM (inactive)
[2]
  IC50: > 100 µM (inactive)
Mu-type opioid receptor
  EC50: 92.5 µM (inactive)
[3]
  EC50: 76.1 µM (inactive)
[4]
  CC50: 21.4 µM (active)

## CCOC(=O)C1CCCN(Cc2ccc(OCC)cc2)C1 (centres undefined)
Saccharomyces cerevisiae
  IC50: > 100 µM (inactive)
[2]
  IC50: > 100 µM (inactive)

## COc1ccc(NC(=O)CN2C(=O)S/C(=C/c3cccn3-c3ccc(C(=O)O)cc3)C2=O)cc1
SUMO-activating enzyme [5]
  IC50: 5.52 µM (active)
SUMO-activating enzyme [6]
  IC50: 10.5 µM (active)

## FC(F)(F)c1ccc(/N=c2\ssnc2Cl)cc1
[7]
  IC50: 32.7 µM (active)
Phosphomannomutase 2
  IC50: > 100 µM (inactive)

## COc1ccc(/C=N/Nc2cc(C)nc3ccc(OC)cc23)c(OC)c1
HEK293
  AC50: 3.43 µM (active)
[8]
  IC50: 36.4 µM (active)
[9]
  CC50: 17.9 µM (active)
[10]
  EC50: 8.29 µM (active)
Bcl-2-related protein A1
  IC50: 11.4 µM (active)
[11]
  AC50: 4.32 µM (active)
[12]
  EC50: 8.01 µM (active)
[13]
  AC50: 10.8 µM (active)
INS1
  AC50: 7.95 µM (active)
[14]
  CC50: 1.77 µM (active)
[15]
  IC50: 6.39 µM (active)
[16]
  IC50: 9.36 µM (active)
[17]
  EC50: 0.72 µM (active)
[18]
  AC50: 8.34 µM (active)
[19]
  AC50: 9.83 µM (active)
[20]
  IC50: 9.1 µM (active)
[21]
  IC50: 28.1 µM (inactive)
[22]
  AC50: 3.97 µM (active)
[23]
  AC50: 38.7 µM (active)
[24]
  EC50: 8.87 µM (active)
[25]
  IC50: > 66.6 µM (inactive)
[26]
  EC50: > 100 µM (inactive)
[27]
  EC50: 7.61 µM (active)

## Sc1nnc(-c2cccc(Cl)c2)n1/N=C/c1ccc(-c2ccccc2Br)o1
SUMO-activating enzyme [5]
  IC50: 12.6 µM (active)
SUMO-activating enzyme [6]
  IC50: 28 µM (active)
[4]
  CC50: > 50 µM (active)

## Oc1[nH]nc(-c2ccccc2)c1/C=N/c1ccc(Cl)cc1
[1]
  EC50: 2.11 µM (active)
